Columns and labels:
[1] = system: SMN2 minigene (full length SMN2 minigene mRNA containing SMN2 exon 7); assay: SMN2 minigene mRNA splicing RT-qPCR assay in cultured cells; format: cell-based, human; details: Homo sapiens, HEK293-H; HEK293H cells stably transfected with SMN2-A minigene; 24 hours; 7-point concentration curve; 1.5-fold relative to vehicle-treated cells; read-out: EC1.5x for production of full length SMN2 mRNA
Summary of the method: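 Lysates → one-step RT-qPCR, minigene-specific primers (0.4 μM final) + GAPDH multiplex, 40 cycles. FL/GAPDH vs DMSO; EC1.5x, star-binned.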

Smn protein = Smn protein assay in cultured cells (SMN HTRF); format: cell-based, human; details: 48 hours; for maximum fold (Fold) increase of Smn protein: SMA patient fibroblast cells, 7-point concentration data, fold increase relative to vehicle control (SMN HTRF); for EC1.5x (concentration giving 1.5-fold Smn protein increase): SMA Type 1 patient fibroblast cells (GM03813), 7-point concentration curve, SMN HTRF, concentration producing 1.5 times Smn protein vs DMSO vehicle control, read-out: EC1.5x for Smn protein expression
Summary of the method: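 Smn in SMA fibroblast lysates, measured by anti-SMN HTRF after 48 h compound exposure; EC1.5x from fold change over vehicle.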

Compound	EC (1.5-fold) [1] [µM]	melting point [°C]	maximum fold (Fold) increase of Smn protein (Smn protein)	EC1.5x (concentration giving 1.5-fold Smn protein increase) (Smn protein) [nM]
CCc1cc(C)cn2cc(-c3cc4ccc(N5C[C@@H](C)N[C@@H](C)C5)cc4oc3=O)nc12 [Compound 341, 7-[(3R,5S)-3,5-dimethylpiperazin-1-yl]-3-(8-ethyl-6-methylimidazo[1,2-a]pyridin-2-yl)-2H-chromen-2-one]	0.3 to 1	203 to 208	* (maximum fold increase of ≤1.2)	–
CC(C)NCc1ccc2cc(-c3cn4ccsc4n3)c(=O)oc2c1 [Compound 199, 3-(imidazo[2,1-b][1,3]thiazol-6-yl)-7-[(propan-2-ylamino)methyl]-2H-chromen-2-one]	1 to 3	141 to 145	** (fold increase between >1.2 and ≤1.35)	–
CN(C)Cc1ccc2cc(-c3nc4ccccc4[nH]3)c(=O)oc2c1 [Compound 396, 3-(1H-benzimidazol-2-yl)-7-[(dimethylamino)methyl]-2H-chromen-2-one]	1 to 3	214 to 218	** (fold increase between >1.2 and ≤1.35)	–
COc1ccc(-c2cc3c(F)cc(N4CCN[C@@H](C)C4)cc3oc2=O)cc1OC [Compound 464, 3-(3,4-dimethoxyphenyl)-5-fluoro-7-[(3S)-3-methylpiperazin-1-yl]-2H-chromen-2-one]	0.1 to 0.3	118 to 120	*** (fold increase between >1.35 and ≤1.5)	–
COc1cccn2cc(-c3cc4ccc(N5CCN(C)CC5)cc4oc3=O)nc12 [Compound 403, 3-(8-methoxyimidazo[1,2-a]pyridin-2-yl)-7-(4-methylpiperazin-1-yl)-2H-chromen-2-one]	3 to 30	202 to 205	* (maximum fold increase of ≤1.2)	–
Cc1cn2cc(-c3cc4ccc(N5CCC(N)CC5)cc4oc3=O)nc2c(C)n1 [Compound 919, 7-(4-aminopiperidin-1-yl)-3-(6,8-dimethylimidazo[1,2-a]pyrazin-2-yl)-2H-chromen-2-one]	< 0.1	262 to 269	**** (fold increase between >1.5 and ≤1.65)	< 300
Cc1cn2cc(-c3cc4c(F)cc(N5CCCNCC5)cc4oc3=O)nc2c(C)n1 [Compound 608, 7-(1,4-diazepan-1-yl)-3-(6,8-dimethylimidazo[1,2-a]pyrazin-2-yl)-5-fluoro-2H-chromen-2-one]	< 0.1	248 to 250	***** (fold increase >1.65)	< 300
C[C@@H]1CN(c2ccc3cc(-c4cn(-c5ccccc5)cn4)c(=O)oc3c2)C[C@H](C)N1 [Cpd 452, 7-[(3R,5S)-3,5-dimethylpiperazin-1-yl]-3-(1-phenyl-1H-imidazol-4-yl)-2H-chromen-2-one]	3 to 30	260 to 264	* (maximum fold increase of ≤1.2)	–
Cn1c(-c2cc3ccc(N4CCN(C(=O)OCc5ccccc5)CC4)cc3oc2=O)nc2ccccc21 [Compound 43, benzyl 4-[3-(1-methyl-1H-benzimidazol-2-yl)-2-oxo-2H-chromen-7-yl]piperazine-1-carboxylate]	3 to 30	253 to 254	* (maximum fold increase of ≤1.2)	–
Cc1cn2cc(-c3cc4ccc(CCCN(CCO)CCO)cc4oc3=O)nc2c(C)n1 [Compound 885, 7-{3-[bis(2-hydroxyethyl)amino]propyl}-3-(6,8-dimethylimidazo[1,2-a]pyrazin-2-yl)-2H-chromen-2-one]	0.1 to 0.3	158 to 162	***** (fold increase >1.65)	300 to 1000
CCN1CCN(c2ccc3cc(-c4cn5cc(C)sc5n4)c(=O)oc3c2)CC1 [Compound 151, 7-(4-ethylpiperazin-1-yl)-3-(2-methylimidazo[2,1-b][1,3]thiazol-6-yl)-2H-chromen-2-one]	3 to 30	205 to 208	* (maximum fold increase of ≤1.2)	–
CN1CCCN(c2cc(F)c3cc(-c4cn5cccnc5n4)c(=O)oc3c2)CC1 [Compound 335, 5-fluoro-3-(imidazo[1,2-a]pyrimidin-2-yl)-7-(4-methyl-1,4-diazepan-1-yl)-2H-chromen-2-one]	0.1 to 0.3	300 to 302	*** (fold increase between >1.35 and ≤1.5)	1000 to 3000
Cc1cn2cc(-c3cc4ccc(OCCNCCO)cc4oc3=O)nc2c(C)n1 [Compound 959, 3-(6,8-dimethylimidazo[1,2-a]pyrazin-2-yl)-7-{2-[(2-hydroxyethyl)amino]ethoxy}-2H-chromen-2-one]	< 0.1	175 to 177	*** (fold increase between >1.35 and ≤1.5)	300 to 1000
C[C@@H]1CN[C@@H](C)CN1c1ccc2cc(-c3cn4ccc(C(F)(F)F)cc4n3)c(=O)oc2c1 [Compound 277, 7-[(2R,5S)-2,5-dimethylpiperazin-1-yl]-3-[7-(trifluoromethyl)imidazo[1,2-a]pyridin-2-yl]-2H-chromen-2-one]	0.3 to 1	213 to 219	* (maximum fold increase of ≤1.2)	–
C[C@@H]1CN(c2ccc3cc(-c4cn5cc(F)cc(F)c5n4)c(=O)oc3c2)C[C@H](C)N1 [Compound 523, 3-(6,8-difluoroimidazo[1,2-a]pyridin-2-yl)-7-[(3R,5S)-3,5-dimethylpiperazin-1-yl]-2H-chromen-2-one]	0.3 to 1	267 to 277	** (fold increase between >1.2 and ≤1.35)	–
COc1ccc(-c2cc3ccc(N4CCNCC4)cc3oc2=O)c(OC)c1 [Compound 465, 3-(2,4-dimethoxyphenyl)-7-(piperazin-1-yl)-2H-chromen-2-one]	3 to 30	171 to 173	* (maximum fold increase of ≤1.2)	–
Cc1cn2cc(-c3cc4ccc(N5CC[C@H](N(C)C)C5)cc4oc3=O)nc2c(C)n1 [Compound 691, 7-[(3S)-3-(dimethylamino)pyrrolidin-1-yl]-3-(6,8-dimethylimidazo[1,2-a]pyrazin-2-yl)-2H-chromen-2-one]	< 0.1	244 to 246	**** (fold increase between >1.5 and ≤1.65)	< 300
COc1ccc(-c2cc3ccc(N4CCN[C@@H](C)C4)cc3oc2=O)cc1C [Compound 542, 3-(4-methoxy-3-methylphenyl)-7-[(3S)-3-methylpiperazin-1-yl]-2H-chromen-2-one]	1 to 3	127 to 131	* (maximum fold increase of ≤1.2)	–
CCN1CCN(c2ccc3cc(-c4cc5cnc(C)cn5c4)c(=O)oc3c2)CC1 [Compound 640, 7-(4-ethylpiperazin-1-yl)-3-(3-methylpyrrolo[1,2-a]pyrazin-7-yl)-2H-chromen-2-one]	< 0.1	208 to 210	**** (fold increase between >1.5 and ≤1.65)	< 300
C[C@@H]1CN(c2ccc3cc(-c4cn5cccc(Cl)c5n4)c(=O)oc3c2)C[C@H](C)N1C [Compound 137, 3-(8-chloroimidazo[1,2-a]pyridin-2-yl)-7-[(3R,5S)-3,4,5-trimethylpiperazin-1-yl]-2H-chromen-2-one]	1 to 3	244 to 247	*** (fold increase between >1.35 and ≤1.5)	–
Cc1cn2cc(-c3cc4ccc(CCCNC(C)CO)cc4oc3=O)nc2c(C)n1 (stereo not drawn) [Compound 881, 3-(6,8-dimethylimidazo[1,2-a]pyrazin-2-yl)-7-{3-[(1-hydroxypropan-2-yl)amino]propyl}-2H-chromen-2-one]	< 0.1	181 to 184	**** (fold increase between >1.5 and ≤1.65)	< 300
Cc1cn2cc(-c3cc4ccc(N(C)[C@@H]5CCNC5)cc4oc3=O)nc2c(C)n1 [Compound 700, 3-(6,8-dimethylimidazo[1,2-a]pyrazin-2-yl)-7-{methyl[(3R)-pyrrolidin-3-yl]amino}-2H-chromen-2-one]	0.1 to 0.3	192 to 202	***** (fold increase >1.65)	< 300
O=c1oc2cc(N3CCN(CCO)CC3)ccc2cc1-c1cn2cccc(Cl)c2n1 [Compound 121, 3-(8-chloroimidazo[1,2-a]pyridin-2-yl)-7-[4-(2-hydroxyethyl)piperazin-1-yl]-2H-chromen-2-one]	0.3 to 1	247 to 250	*** (fold increase between >1.35 and ≤1.5)	–
CN1CCCN(c2ccc3cc(-c4cn5cc(Cl)ccc5n4)c(=O)oc3c2)CC1 [Compound 92, 3-(6-chloroimidazo[1,2-a]pyridin-2-yl)-7-(4-methyl-1,4-diazepan-1-yl)-2H-chromen-2-one]	1 to 3	186 to 189	*** (fold increase between >1.35 and ≤1.5)	–

From patent publication USRE47689E1, “Compounds for treating spinal muscular atrophy” (PTC Therapeutics, Inc., priority 2011, dated 2019)
